Experimental data published in US20250236613A1, “SARM1 MODULATORS, PREPARATIONS, AND USES THEREOF” (SIRONAX LTD., priority 2021, published 2025).

target: SARM1 (50-724) (Homo sapiens (Human), UniProt Q6SZW1); assay: SARM1 (50-724) enzymatic assay; format: biochemical; conditions: SARM1 inhibitory activity; 2 nM SARM1 (50-724), 200 μM NMN activator, 100 μM NAD+ substrate, 1 h, LC-MS/MS
Experimental: The enzymatic assay was performed in a 384-well plate using Dulbecco's PBS buffer as the reaction buffer. Purified SARM1 (50-724) with a final concentration of 2 nM was pre-incubated with the test compound at 1% DMSO final assay concentration for 15 min at room temperature. The reaction was initiated by adding the mixture of 200 μM NMN as activator and 100 μM NAD^+ as substrate. After 1 h of incubation at room temperature, the reaction was terminated with 10 times volume of 70% acetonitrile, then centrifuged at 3800 rpm for 10 min. The samples were analyzed using LC-MS/MS after diluted to the proper concentration by 10 mM ammonium acetate (pH 9.75).

Chain of SARM1 (50-724) (Q6SZW1 50-724): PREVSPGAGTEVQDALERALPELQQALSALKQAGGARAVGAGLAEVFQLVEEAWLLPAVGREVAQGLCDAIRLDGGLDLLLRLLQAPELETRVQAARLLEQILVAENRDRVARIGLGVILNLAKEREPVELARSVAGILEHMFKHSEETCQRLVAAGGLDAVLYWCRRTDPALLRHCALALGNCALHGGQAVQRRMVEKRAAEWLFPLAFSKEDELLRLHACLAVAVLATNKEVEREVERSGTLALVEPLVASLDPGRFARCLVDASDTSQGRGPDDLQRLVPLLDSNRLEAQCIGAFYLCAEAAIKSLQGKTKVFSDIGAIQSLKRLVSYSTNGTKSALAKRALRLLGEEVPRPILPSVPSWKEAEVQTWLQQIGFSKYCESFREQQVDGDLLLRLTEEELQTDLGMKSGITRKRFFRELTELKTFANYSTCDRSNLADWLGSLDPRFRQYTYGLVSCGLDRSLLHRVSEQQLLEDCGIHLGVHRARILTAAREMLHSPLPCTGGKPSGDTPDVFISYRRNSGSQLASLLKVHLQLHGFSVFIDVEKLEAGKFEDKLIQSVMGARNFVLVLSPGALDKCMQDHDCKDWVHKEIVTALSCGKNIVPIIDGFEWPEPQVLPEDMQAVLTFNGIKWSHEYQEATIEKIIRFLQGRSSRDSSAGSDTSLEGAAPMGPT

| IC50 [µM] | SMILES |
| --- | --- |
| < 5 | O=c1[nH]c2ccc(-c3cncc(Nc4ccc(Cl)cc4)c3)cc2o1 [Compound 104, 6-(5-((4-chlorophenyl)amino)pyridin-3-yl)benzo[d]oxazol-2(3H)-one] |
| < 5 | O=c1[nH]c2ccc(-c3cncc(Nc4cccnc4)c3)cc2o1 [Compound 105, 6-(5-(pyridin-3-ylamino)pyridin-3-yl)benzo[d]oxazol-2(3H)-one] |
| < 5 | CC(C)(C)OC(=O)N1CCCc2ccc(Nc3cncc(-c4ccc5[nH]c(=O)oc5c4)c3)cc21 [Compound 106, tert-butyl 7-((5-(2-oxo-2,3-dihydrobenzo[d]oxazol-6-yl)pyridin-3-yl)amino)-3,4-dihydroquinoline-1(2H)-carboxylate] |
| < 5 | N#Cc1cccc(Nc2cncc(-c3ccc4[nH]c(=O)oc4c3)c2)c1 [Compound 107, 3-((5-(2-oxo-2,3-dihydrobenzo[d]oxazol-6-yl)pyridin-3-yl)amino)benzonitrile] |
| < 5 | Cn1cc(Nc2cncc(-c3ccc4[nH]c(=O)oc4c3)c2)cn1 [Compound 108, 6-(5-((1-methyl-1H-pyrazol-4-yl)amino)pyridin-3-yl)benzo[d]oxazol-2(3H)-one] |
| < 5 | CN(c1ccccc1)c1cncc(-c2ccc3[nH]c(=O)oc3c2)c1 [Compound 109, 6-(5-(methyl(phenyl)amino)pyridin-3-yl)benzo[d]oxazol-2(3H)-one] |
| < 5 | CNc1cncc(-c2ccc3[nH]c(=O)oc3c2)c1 [Compound 110, 6-(5-(methylamino)pyridin-3-yl)benzo[d]oxazol-2(3H)-one] |
| < 5 | O=c1[nH]c2ccc(-c3cncc(Nc4ccncc4)c3)cc2o1 [Compound 111, 6-(5-(pyridin-4-ylamino)pyridin-3-yl)benzo[d]oxazol-2(3H)-one] |
| < 5 | O=c1[nH]c2ccc(-c3cc(Nc4ccccc4)cnn3)cc2o1 [Compound 112, 6-(5-(phenylamino)pyridazin-3-yl)benzo[d]oxazol-2(3H)-one] |
| < 5 | O=c1[nH]c2ccc(-c3cncc(Nc4ccccn4)c3)cc2o1 [Compound 113, 6-(5-(pyridin-2-ylamino)pyridin-3-yl)benzo[d]oxazol-2(3H)-one] |
| < 5 | O=c1[nH]c2ccc(-c3cncc(Nc4cncnc4)c3)cc2o1 [Compound 114, 6-(5-(pyrimidin-5-ylamino)pyridin-3-yl)benzo[d]oxazol-2(3H)-one] |
| < 5 | O=c1[nH]c2ccc(-c3cncc(Nc4nccs4)c3)cc2o1 [Compound 115, 6-(5-(thiazol-2-ylamino)pyridin-3-yl)benzo[d]oxazol-2(3H)-one] |
| < 5 | Cc1cc(Nc2cncc(-c3ccc4[nH]c(=O)oc4c3)c2)n(C)n1 [Compound 117, 6-(5-((1,3-dimethyl-1H-pyrazol-5-yl)amino)pyridin-3-yl)benzo[d]oxazol-2(3H)-one] |
| < 5 | O=c1[nH]c2ccc(-c3cncc(Nc4cccnn4)c3)cc2o1 [Compound 118, 6-(5-(pyridazin-3-ylamino)pyridin-3-yl)benzo[d]oxazol-2(3H)-one] |
| < 5 | O=c1[nH]c2ccc(-c3cncc(Oc4ccccc4)c3)cc2o1 [Compound 119, 6-(5-phenoxypyridin-3-yl)benzo[d]oxazol-2(3H)-one] |
| < 5 | Cc1ccncc1-c1ccc2[nH]c(=O)[nH]c(=O)c2c1 [Compound 120, 6-(4-methylpyridin-3-yl)quinazoline-2,4(1H,3H)-dione] |
